Here are results for one compound from patent publication US20260207637A1, “MODULATOR FOR PROMOTING BINDING OF BUTYROPHILIN 3A1/2A1” (priority 2023, published 2026).

The nature of series [1]: Binding rate test of compounds and human plasma protein (equilibrium dialysis). The following applies: human plasma, equilibrium dialysis 6 hours, 37° C. Format: in vitro ADME. The protocol: (1) The dry dialysis membrane was soaked with ultrapure water for 20 min or more than 20 min, then soaked with 20% ethanol for 30 min to 1 h, and the membrane was rinsed with ultrapure water 2-3 times. Finally, the membrane was soaked with ultrapure water for 20 minutes for later use.
(2) The frozen plasma was thawed in a water bath at 37° C.
(3) The test compound was diluted into plasma preheated to 37° C. at a final concentration of 1 μM, and the final concentration of the control compound warfarin in plasma was 2 μM.
(4) The pre-treated dialysis membrane was assembled into the dialysis plate according to the specification of the product, and 120 μL of the receiving solution (100 mM phosphate buffer solution added 0.002% Tween 80) was added to one side of the permeable membrane in each dialysis well.
(5) 20 μL of each of the final solutions of the test compound and the control compound were added into a 96-well sample plate in duplicate, and the TO sample was obtained, which was stored in a refrigerator at −20° C. Another 20 μL of the above final solution was added to the other side of the membrane in the dialysis device in duplicate, and incubated at 37° C. by shaking at constant temperature for 6 hours.
(6) After 6 hours of incubation, 20 L of each of the dialyzed receiving solution and the administered plasma were weighed to obtain sample B and sample A in duplicate. The corresponding volume of corresponding blank plasma or receiving solution was added to sample B and sample A, respectively, so that the volume ratio of plasma to buffer in each sample well was 1:1. 300 μL of acetonitrile solution containing internal standard was added to all sample wells, and centrifuged after mixed uniformly.
(7) 200 μL of ultrapure water (150 μL for the control group) was added into the corresponding sample wells of the 96-well sample plate, and 300 μL of the supernatant (150 μL for the control group) was added into the sample well; the samples were analyzed after mixed uniformly. The free percentage and recovery rate of the compound in plasma were calculated using the following formula: Plasma protein binding rate (%)=1−free percentage, wherein free percentage (%)=CB/CA
wherein CB is the concentration of the compound in the receiving solution after equilibrium dialysis, CA is the concentration of the compound in the drug-dosed plasma after equilibrium dialysis, and CT0 is the initial concentration of the compound in plasma.
A general note: In equilibrium dialysis only unbound substance equilibrates across the membrane.

Series [2] is described as follows: Stability experiment of compounds in human liver microsomes. Format: in vitro ADME. Particulars: NADPH, 37° C., read-out: T1/2 in human liver microsomes. The protocol:
Compounds were prepared as a 10 mM stock solution with DMSO and then diluted with 80% acetonitrile-water to a 100 μM working solution for later use. Human liver microsomes were obtained from BIOIVT.
(1) The liver microsomes taken out from the refrigerator were placed in a 37° C. water bath thermostatic oscillator, pre-incubated for 5 min, and thawed for later use.
(2) A certain amount of NADPH was weighed and added to an appropriate amount of magnesium chloride solution to dissolve into a 2 mM solution for later use.
(3) A mixed solution of the warm incubation system (containing no β-NADPH) was prepared according to the proportions in the “composition of the experimental warm incubation system” above and dispensed at 165 μL/tubes (45 μL/tube for the negative control group and 120 μL/tube for the positive control group).
(4) For the sample at 0 min: 200 μL of internal standard working precipitant was added and then 30 μL of NADPH solution was added.
(5) For other samples: 135 μL NADPH solution was added to initiate the reaction (45 μL magnesium chloride solution was added for the negative control group), and incubated in a 37° C. water bath for 5, 15, 30, and 60 min (incubated in a 37° C. water bath for 60 min for the negative control group), then 60 μL was sampled and added to 200 µL of precipitant containing internal standard.
(6) For the positive control group: 90 L NADPH solution was added to initiate the reaction, and incubated in a 37° C. water bath for 5, 15 min, then 60 μL was sampled and added to 200 μL of precipitant containing internal standard.
(7) For neat sample: 297 μL of water was pipetted into a tube, 1000 μL of internal standard working solution was added, and 3 μL of test compound working solution was added.
(8) All samples were vortexed and centrifuged.
(9) 150 μL of the supernatant was sampled and added to 150 μL of water, mixed uniformly by vortex, and analyzed by LC-MS/MS. The half-life stability data of human liver microsomes is as follows: […]

A short description of series [3]: Stability experiment of compounds in human whole blood. Format: in vitro ADME. The following applies: whole blood (sodium heparin), 37° C., 0-4 h, read-out: T1/2 in human whole blood (converted). The protocol: • (1) An appropriate amount of blank whole blood was added into an EP tube containing sodium heparin, then added the working solution of the test substance to a final concentration of 1 μM, and mixed by vortex; • (2) The sample was placed in a water bath at 37° C. with two parallel experiments; for one experiment, the time points were 0 h, 0.5 h, 1 h, 2 h, and 4 h; another experiment was performed to obtain the absolute zero point, which was compared with the 0 h point. • (3) An appropriate amount of sample was taken out from the incubation system, to which 300 μL of internal standard precipitant was added for protein precipitation; (4) all samples were centrifuged at 6° C. for 10 min (15700×g). • (5) 150 μL of the supernatant was taken out, to which 150 μL of water was added, which was mixed by vortex, and analyzed by LC-MS/MS. The stability data of compounds in human whole blood is as follows: […]

Series [4] can be described thus: Pharmacokinetic test in cynomolgus monkeys. Format: in vivo. The following applies: IV 2 mg/kg. The protocol: The control compound 2 and compound 19 were formulated into 1 mg/mL solution in 10% DMSO/90% PBS. Cynomolgus monkeys were obtained from Suzhou Leo Bio Technology Co., Ltd. The control compound 2 and compound 19 were administered intravenously at 2 mg/kg, respectively. The blood collected before administration was recorded as zero point. Then 1 mL of blood was collected at eight time points: 0.083, 0.15, 0.5, 1.0 2.0, 4.0, 8.0, and 24.0, respectively. 1 mL of the collected whole blood was placed in a labeled EDTA-2K anticoagulant tube. After gently inverting up and down to fully mix the anticoagulant (EDTA-2K) with the blood, it was immediately placed in wet ice and centrifuged within 30 minutes to separate the plasma. The centrifugation conditions were set to 4° C., 2200 g, and 6 min. The plasma separated after centrifugation was placed in a labeled EP tube, and the content of compound 19 and control compound 2 in the plasma samples at different time points were detected and analyzed. There were 3 male cynomolgus monkeys in each group.

A word on the fraction unbound: it is the share of the substance not bound to proteins or other matrix. Higher therefore signals much free substance. Take `C/C(=C\CCP(=O)(N[C@@H](C)C(=O)OCc1ccccc1)Oc1ccccc1)CO` (stereo partly shown) [Control compound 2, reference compound]: in series [1], the fraction unbound at 6 h, 1 μM was 0.027. Further, the half-life in series [2] worked out at 1.4 min. Also, the half-life at 1 μM in series [3] was 2 h. In addition, the AUC0-t/AUC0-inf in series [4] (average) stood at 0.974. For the same compound, the concentration at 5 min in series [4] (male, cynomolgus monkey, plasma, 5 min, read-out: Plasma concentration of the unchanged drug) is 299 ng/mL. For the same compound, the concentration at 9 min in series [4] (male, cynomolgus monkey, plasma, 9 min, read-out: Plasma concentration of the unchanged drug) is 49 ng/mL. For the same compound, in series [4] (male, cynomolgus monkey, plasma, 30 min, read-out: Plasma concentration of the unchanged drug), the concentration at 30 min came to 1 ng/mL. Moreover, the concentration at 1 h in series [4] (male, cynomolgus monkey, plasma, 1 h, read-out: Plasma concentration of the unchanged drug) amounted to 3 ng/mL. In addition, in series [4] (male, cynomolgus monkey, plasma, average, read-out: AUC0-t (AUClast)), the AUC(0-t) turned out to be 194 ng·h/mL. Also, the clearance in series [4] (male, cynomolgus monkey, plasma, average, read-out: Cl (Cl_obs)) was determined as 418 mL/min/kg.
